Measured values taken from patent publication US20240116910A1, “Heterocycles as WIP1 Inhibitors” (PMV Pharmaceuticals, Inc., priority 2022, published 2024).

How the values were obtained:
[1] = molecular target: recombinant His-tag Wip1(2-420) protein (amino acids #2-420) (Homo sapiens (Human), UniProt O15297); assay: Wip1(2-420) phosphatase enzyme FDP assay; format: biochemical; settings: fluorescein diphosphate (FDP) substrate, RT 2 hours, fluorescence Ex485/Em535; read-out: WIP1 (Truncated 2-420) FDP Assay: IC50
recombinant His-tag Wip1(2-420) protein (amino acids #2-420), sequence (O15297 2-420): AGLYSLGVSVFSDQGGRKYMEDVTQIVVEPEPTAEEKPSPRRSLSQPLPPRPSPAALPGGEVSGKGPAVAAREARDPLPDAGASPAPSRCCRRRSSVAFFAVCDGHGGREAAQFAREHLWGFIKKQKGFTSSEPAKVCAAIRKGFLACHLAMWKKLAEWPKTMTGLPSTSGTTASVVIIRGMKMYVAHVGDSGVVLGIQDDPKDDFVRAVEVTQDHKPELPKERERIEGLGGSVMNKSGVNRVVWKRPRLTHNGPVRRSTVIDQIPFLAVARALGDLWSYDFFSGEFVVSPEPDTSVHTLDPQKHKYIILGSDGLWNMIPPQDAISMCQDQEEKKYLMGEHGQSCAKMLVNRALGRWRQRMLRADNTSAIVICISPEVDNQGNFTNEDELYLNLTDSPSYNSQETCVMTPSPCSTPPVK

[2] = molecular target: recombinant His-tag Wip1 full length protein (amino acids #1-605) (Homo sapiens (Human), UniProt O15297); assay: Wip1 full length phosphatase enzyme FDP assay; format: biochemical; settings: fluorescein diphosphate (FDP) substrate, RT 2 hours, fluorescence Ex485/Em535
recombinant His-tag Wip1 full length protein (amino acids #1-605), sequence (O15297 whole entry): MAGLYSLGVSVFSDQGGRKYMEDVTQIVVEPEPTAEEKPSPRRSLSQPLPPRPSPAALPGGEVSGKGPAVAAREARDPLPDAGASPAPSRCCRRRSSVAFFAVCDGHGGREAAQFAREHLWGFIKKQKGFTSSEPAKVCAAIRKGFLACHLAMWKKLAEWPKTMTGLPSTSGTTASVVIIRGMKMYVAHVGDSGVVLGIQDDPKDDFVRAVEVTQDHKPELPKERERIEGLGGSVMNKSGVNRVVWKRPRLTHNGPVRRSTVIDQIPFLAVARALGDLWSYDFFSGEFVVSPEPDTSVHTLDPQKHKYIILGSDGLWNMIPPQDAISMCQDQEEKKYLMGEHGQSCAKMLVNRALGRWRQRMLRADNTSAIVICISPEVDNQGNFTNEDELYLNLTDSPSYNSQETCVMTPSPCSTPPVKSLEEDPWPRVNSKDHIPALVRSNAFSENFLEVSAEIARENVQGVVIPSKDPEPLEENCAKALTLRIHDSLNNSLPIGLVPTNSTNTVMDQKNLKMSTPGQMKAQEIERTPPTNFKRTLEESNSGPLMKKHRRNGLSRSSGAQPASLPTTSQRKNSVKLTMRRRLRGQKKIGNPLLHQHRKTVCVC

| IC50 [1] | IC50 [2] | Compound |
| --- | --- | --- |
| 13 nM | 16 nM | Cc1ncc(Cl)cc1N[C@@H](C)c1ccc(C(=O)N[C@@H](CC2CCCC2)C(=O)NC23CC(C(=O)O)(C2)C3)s1 [Compound 43, 3-[(2S)-2-({5-[(1S)-1-[(5-chloro-2-methylpyridin-3-yl)amino]ethyl]thiophen-2-yl}formamido)-3-cyclopentylpropanamido]bicyclo[1.1.1]pentane-1-carboxylic acid] |
| 67 nM | 67 nM | CN(Cc1ncc(C(=O)N[C@@H](CC2CCCCC2)C(=O)N[C@H]2CC[C@H](N(C)C)CC2)s1)c1cncc(Cl)c1 [Compound 303, 2-[[(5-chloro-3-pyridyl)-methyl-amino]methyl]-N-[(1S)-1-(cyclohexylmethyl)-2-[[4-(dimethylamino)cyclohexyl]amino]-2-oxo-ethyl]thiazole-5-carboxamide] |
| 42 nM | 23 nM | CN(Cc1ncc(C(=O)N[C@@H](CC2CCCCC2)C(=O)Nc2ccncc2)s1)c1cncc(Cl)c1 [Compound 301, 2-[[(5-Chloro-3-pyridyl)-methyl-amino]methyl]-N-[(1S)-1-(cyclohexylmethyl)-2-oxo-2-(4-pyridylamino)ethyl]thiazole-5-carboxamide] |
| 6 nM | 7 nM | CCc1ncc(Cl)cc1N[C@@H](C)c1ccc(C(=O)N[C@@H](CC2CCCC2)C(=O)NC2CC2)s1 [Compound 78, (2S)-2-({5-[(1S)-1-[(5-chloro-2-ethylpyridin-3-yl)amino]ethyl]thiophen-2-yl}formamido)-3-cyclopentyl-N-cyclopropylpropanamide] |
| 11 nM | 13 nM | COC(=O)C12CC(NC(=O)[C@H](CC3CCCC3)NC(=O)c3ccc([C@H](C)Nc4cc(Cl)cnc4C)s3)(C1)C2 [Compound 19, methyl 3-[(2S)-2-({5-[(1S)-1-[(5-chloro-2-methylpyridin-3-yl)amino]ethyl]thiophen-2-yl}formamido)-3-cyclopentylpropanamido]bicyclo[1.1.1]pentane-1-carboxylate] |
| 41 nM | 53 nM | Cc1ncc(Cl)cc1N[C@@H](C)c1ncc(C(=O)N[C@@H](CC2CCCC2)C(=O)NC2CC2)s1 [Compound 279, (2S)-2-({2-[(1S)-1-[(5-chloro-2-methylpyridin-3-yl)amino]ethyl]-1,3-thiazol-5-yl}formamido)-3-cyclopentyl-N-cyclopropylpropanamide] |
| 104 nM | 164 nM | COc1ncc(Cl)cc1N[C@@H](C)c1ccc(C(=O)N[C@@H](CC2CCCC2)C(=O)N[C@H]2CC2(F)F)s1 [Compound 49, (2S)-2-({5-[(1S)-1-[(5-chloro-2-methoxypyridin-3-yl)amino]ethyl]thiophen-2-yl}formamido)-3-cyclopentyl-N-[(1S)-2,2-difluorocyclopropyl]propanamide] |
| 9 nM | 12 nM | Cc1ncc(Cl)cc1N[C@@H](C)c1ccc(C(=O)N[C@@H](CC2CCCC2)C(=O)NC2CCS(=O)(=O)CC2)s1 [Compound 58, (2S)-2-({5-[(1S)-1-[(5-chloro-2-methylpyridin-3-yl)amino]ethyl]thiophen-2-yl}formamido)-3-cyclopentyl-N-(1,1-dioxo-1λ^6-thian-4-yl)propanamide] |
| 232 nM | 117 nM | C[C@H](Nc1cccc(Cl)c1)c1ccc(C(=O)N[C@@H](CC2CCCC2)C(=O)NC2CC2)s1 [Compound 2, 5-[(1S)-1-(3-chloroanilino)ethyl]-N-[(1S)-1-(cyclopentylmethyl)-2-(cyclopropylamino)-2-oxo-ethyl]thiophene-2-carboxamide] |
| 5 nM | 8 nM | CC[C@H](Nc1cc(Cl)cnc1C)c1ccc(C(=O)N[C@@H](CC2CCCC2)C(=O)N[C@H]2CC2(F)F)s1 [Compound 48, (2S)-2-({5-[(1S)-1-[(5-chloro-2-methylpyridin-3-yl)amino]propyl]thiophen-2-yl}formamido)-3-cyclopentyl-N-[(1S)-2,2-difluorocyclopropyl]propanamide] |
